Tested on: patients with PBC and cholestatic pruritus
Assay: GLIMMER Phase 2b study: safety and tolerability (adverse events, Safety population)
Assay type: in vivo, human
Source text: Secondary and exploratory endpoints: itch efficacy, quality of life (PBC-40) and pharmacodynamic biomarkers, and safety and tolerability.
In the GLIMMER trial, once daily dosing (QD) was expected to be the optimum dosing regimen. The rationale for QD was as follows: i) it was considered optimal to administer one dose in the morning alone, avoiding administering a dose at night in order to minimise the known side effect of diarrhoea during the night, and ii) one dose per day is generally expected to result in a better patient compliance. The tablet sizes employed in the trial were 10 mg and 45 mg which allowed administration of different dose sizes by combining tablets.
As illustrated in FIG. 1(i), the initial dose sizes were: placebo, 20 mg QD, 90 mg QD and 180 mg QD. Also included was a dose size of 90 mg BID which was evaluated in the earlier Phase 2a study. […] This warranted a further investigation of twice daily dosing. It was decided to add a new 40 mg BID group, and to cease the 20 mg QD dose.

CCCC[C@]1(CC)CS(=O)(=O)c2cc(CNC(CC(=O)O)CC(=O)O)c(OC)cc2[C@@H](c2ccccc2)N1 [linerixibat]
Abdominal distension: number of patients (20 mg QD (N = 14)): 0 | Abdominal pain lower: % of patients (20 mg QD (N = 14)): (7%) | Abdominal pain lower: number of patients (20 mg QD (N = 14)): 1 | Abdominal pain upper: % of patients (20 mg QD (N = 14)): (14%) | Abdominal pain upper: number of patients (20 mg QD (N = 14)): 2 | Abdominal pain: % of patients (20 mg QD (N = 14)): (14%) | Abdominal pain: number of patients (20 mg QD (N = 14)): 2 | Adverse events Main Study, ANY EVENT: % of patients (20 mg QD (N = 14)): (57%) | Adverse events Main Study, ANY EVENT: number of patients (20 mg QD (N = 14)): 8 | Diarrhoea: % of patients (20 mg QD (N = 14)): (36%) | Diarrhoea: number of patients (20 mg QD (N = 14)): 5 | Dry mouth: % of patients (20 mg QD (N = 14)): (14%) | Dry mouth: number of patients (20 mg QD (N = 14)): 2 | Flatulence: % of patients (20 mg QD (N = 14)): (7%) | Flatulence: number of patients (20 mg QD (N = 14)): 1 | Gastrointestinal disorders, Any event: % of patients (20 mg QD (N = 14)): (50%) | Gastrointestinal disorders, Any event: number of patients (20 mg QD (N = 14)): 7 | Gastrooesophageal reflux disease: % of patients (20 mg QD (N = 14)): (7%) | Gastrooesophageal reflux disease: number of patients (20 mg QD (N = 14)): 1 | Nausea: % of patients (20 mg QD (N = 14)): (7%) | Nausea: number of patients (20 mg QD (N = 14)): 1 | Vomiting: % of patients (20 mg QD (N = 14)): (7%) | Vomiting: number of patients (20 mg QD (N = 14)): 1 | gastrointestinal tolerability data (40 mg BID versus higher doses): favored 40 mg BID dosing over higher doses | Abdominal distension: number of patients (90 mg BID (N = 13)): 0 | Abdominal pain upper: number of patients (90 mg BID (N = 13)): 0 | Abdominal pain: number of patients (90 mg BID (N = 13)): 1 | Adverse events Main Study, ANY EVENT: % of patients (90 mg BID (N = 13)): (69%) | Adverse events Main Study, ANY EVENT: number of patients (90 mg BID (N = 13)): 9 | Diarrhoea: number of patients (90 mg BID (N = 13)): 5 | Dry mouth: number of patients (90 mg BID (N = 13)): 0 | Flatulence: number of patients (90 mg BID (N = 13)): 0 | Gastrointestinal disorders, Any event: number of patients (90 mg BID (N = 13)): 5 | Gastrooesophageal reflux disease: number of patients (90 mg BID (N = 13)): 0 | Nausea: % of patients (90 mg BID (N = 13)): (15%) | Nausea: number of patients (90 mg BID (N = 13)): 2 | Vomiting: % of patients (90 mg BID (N = 13)): (8%) | Vomiting: number of patients (90 mg BID (N = 13)): 1 | tolerability at interim analysis (90 mg BID versus 180 mg QD): better tolerated than 180 mg QD | Abdominal distension: % of patients (90 mg QD (N = 12)): (8%) | Abdominal distension: number of patients (90 mg QD (N = 12)): 1 | Abdominal pain lower: % of patients (90 mg QD (N = 12)): (8%) | Abdominal pain lower: number of patients (90 mg QD (N = 12)): 1 | Abdominal pain: % of patients (90 mg QD (N = 12)): (8%) | Abdominal pain: number of patients (90 mg QD (N = 12)): 1 | Adverse events Main Study, ANY EVENT: % of patients (90 mg QD (N = 12)): (75%) | Adverse events Main Study, ANY EVENT: number of patients (90 mg QD (N = 12)): 9 | Diarrhoea: % of patients (90 mg QD (N = 12)): (50%) | Diarrhoea: number of patients (90 mg QD (N = 12)): 6 | Dry mouth: % of patients (90 mg QD (N = 12)): (8%) | Dry mouth: number of patients (90 mg QD (N = 12)): 1 | Flatulence: number of patients (90 mg QD (N = 12)): 0 | Gastrointestinal disorders, Any event: % of patients (90 mg QD (N = 12)): (50%) | Gastrointestinal disorders, Any event: number of patients (90 mg QD (N = 12)): 6 | Gastrooesophageal reflux disease: number of patients (90 mg QD (N = 12)): 0 | Nausea: number of patients (90 mg QD (N = 12)): 0 | Vomiting: number of patients (90 mg QD (N = 12)): 0 | Abdominal distension: % of patients (180 mg QD (N = 17)): (6%) | Abdominal pain lower: number of patients (180 mg QD (N = 17)): 0 | Abdominal pain upper: % of patients (180 mg QD (N = 17)): (6%) | Abdominal pain: number of patients (180 mg QD (N = 17)): 5 | Adverse events Main Study, ANY EVENT: % of patients (180 mg QD (N = 17)): (82%) | Adverse events Main Study, ANY EVENT: number of patients (180 mg QD (N = 17)): 14 | Diarrhoea: number of patients (180 mg QD (N = 17)): 10 | Dry mouth: number of patients (180 mg QD (N = 17)): 0 | Flatulence: % of patients (180 mg QD (N = 17)): (6%) | Gastrointestinal disorders, Any event: number of patients (180 mg QD (N = 17)): 14 | Gastrooesophageal reflux disease: number of patients (180 mg QD (N = 17)): 0 | Nausea: % of patients (180 mg QD (N = 17)): (6%) | Nausea: number of patients (180 mg QD (N = 17)): 1 | Vomiting: % of patients (180 mg QD (N = 17)): (12%) | Vomiting: number of patients (180 mg QD (N = 17)): 2 | most common AE (in vivo): diarrhea
